Patent US20220106304A1, “Transcription Factor BRN2 Inhibitory Compounds as Therapeutics and Methods for Their Use” (The University of British Columbia, priority 2018, published 2022)

Target: T1, BRN2 (Homo sapiens, UniProt P20265)
T1 sequence (P20265 1-443): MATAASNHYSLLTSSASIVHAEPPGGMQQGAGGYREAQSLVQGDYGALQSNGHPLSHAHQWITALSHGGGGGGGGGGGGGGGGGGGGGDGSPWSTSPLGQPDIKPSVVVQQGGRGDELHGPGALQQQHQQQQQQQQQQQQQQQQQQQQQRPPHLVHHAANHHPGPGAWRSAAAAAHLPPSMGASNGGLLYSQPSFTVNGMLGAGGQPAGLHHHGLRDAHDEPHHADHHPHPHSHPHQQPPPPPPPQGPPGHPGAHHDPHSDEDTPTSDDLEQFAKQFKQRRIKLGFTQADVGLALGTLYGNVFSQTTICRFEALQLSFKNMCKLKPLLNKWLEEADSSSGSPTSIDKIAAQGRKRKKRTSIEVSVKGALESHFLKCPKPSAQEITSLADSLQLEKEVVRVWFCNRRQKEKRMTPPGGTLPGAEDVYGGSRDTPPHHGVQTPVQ
Test: cell-based
Conditions: for % BRN2 Inhibition (10 μM): 10 μM compound; for % BRN2 Inhibition (10 μM) / % BRN2 Inhibition (30 μM): 24 hours, 42D^ENZR cells stably expressing BRN2-luciferase reporter; for % BRN2 Inhibition (10 μM) / % BRN2 Inhibition (30 μM) / inhibition at 10 µM / inhibition at 30 µM: negative = activation; for % BRN2 Inhibition (30 μM): 30 μM compound; for inhibition at 10 µM: read-out: % BRN2 Inhibition (10 μM), 10 μM compound, 24 hours, 42D^ENZR cells stably expressing BRN2-luciferase reporter; for inhibition at 30 µM: read-out: % BRN2 Inhibition (30 μM), 30 μM compound, 24 hours, 42D^ENZR cells stably expressing BRN2-luciferase reporter
Source text: Decreased expression of luciferase protein is validated via western blot to confirm downregulation and avoid false positive molecules that inhibit luciferase protein activity and not BRN2-drive luciferase expression. Molecules are prioritized by their inhibition potency to measure direct interaction with BRN2 in Step 2.
In TABLES 1 and 2, when a single value is mentioned in columns Met Stab % and T½, it refers to compound's stability in MLM and when two values are given they represent HLM/MLM. There is a distinction in TABLES 1 and 2 difference between “Active” and “Specific” or “Specificity”. Compounds are first tested to quantify inhibition of BRN2 transcriptional activity in a luciferase assay to determine “Activity” at […] and 30 μM concentrations. […] Where data is not available “na” is inserted. Where data has yet to be calculated the notation “nc” is used.

Structure (SMILES) | % BRN2 Inhibition (10 μM) | % BRN2 Inhibition (30 μM) | inhibition at 10 µM [%] | inhibition at 30 µM [%] | cell death (30 μM) (30 μM, cell death = severe toxicity at a low dose)
Clc1ccc2cc(-c3csc(C4=CCNCC4)n3)oc2c1 [VPC-18-97, 4-(6-chlorobenzofuran-2-yl)-2-(1,2,3,6-tetrahydropyridin-4-yl)thiazole] | 65% | 99.95% | – | – | –
Cn1c(-c2ccc(C3CCCO3)o2)nc2ccccc21 (stereo not shown) [VPC-18-58, 1-Methyl-2-(5-(tetrahydrofuran-2-yl)furan-2-yl)-1H-benzo[d]imidazole] | INACTIVE | INACTIVE | – | – | –
NS(=O)(=O)c1ccc2nc(-c3csc(-c4ccccc4F)n3)[nH]c2c1 [VPC-18-46, 2-(2-(2-Fluorophenyl)thiazol-4-yl)-1H-benzo[d]imidazole-6-sulfonamide] | – | – | -69.6 | -158 | –
Cn1c(-c2ccc(-c3ccc(C#N)cc3)o2)nc2ccccc21 [VPC-18-62] | – | – | -62 | -110 | –
Cn1c(-c2ccc(-c3ccccc3F)o2)nc2ccc(C(F)(F)F)cc21 [VPC-18-65] | – | – | -52 | -3 | –
O=C(NC1(c2ccco2)CC1)c1cc2ccc(C(F)(F)F)cc2o1 [VPC-18-119] | – | – | 69.9 | -25 | –
Cn1c(-c2ccc(N3CC4CC3CO4)o2)nc2ccccc21 (stereo not shown) [VPC-18-50, 5-(5-(1-Methyl-1H-benzo[d]imidazol-2-yl)furan-2-yl)-2-oxa-5-azabicyclo[2.2.1]heptane] | – | – | -26.6 | 27.5 | –
Cn1c(-c2ccc(C3=CCNCC3)o2)nc2ccccc21 [VPC-18-67] | – | – | -38 | 8 | –
Cn1c(-c2ccc(-c3ccc(F)cc3F)o2)nc2ccc(C(F)(F)F)cc21 [VPC-18-69] | – | – | -8 | 12 | –
O=[N+]([O-])c1ccc2cc(-c3csc(-c4ccc(F)cc4F)n3)oc2c1 [VPC-18-55, 2-(2,4-Difluorophenyl)-4-(6-nitrobenzofuran-2-yl)thiazole] | – | – | -9.94 | -54 | –
Cn1c(-c2ccc(-c3ccc(F)cc3F)o2)nc2ccc([N+](=O)[O-])cc21 [VPC-18-39, 2-(5-(2,4-Difluorophenyl)furan-2-yl)-1-methyl-6-nitro-1H-benzo[d]imidazole] | – | – | -150 | -63.1 | –
FC(F)(F)c1cccc2oc(-c3csc(-c4ccco4)n3)cc12 [VPC-18-101] | – | – | -81 | -43 | –
O=[N+]([O-])c1ccc(-c2nc(-c3cc4ccccc4o3)cs2)o1 [VPC-18-49, 4-(Benzofuran-2-yl)-2-(5-nitrofuran-2-yl)thiazole] | – | – | -48 | -21 | –
Cn1c(-c2ccc(-c3ccc(Br)cc3Cl)o2)nc2ccc(C(F)(F)F)cc21 [VPC-18-34, 2-(5-(4-Bromo-2-chlorophenyl)furan-2-yl)-1-methyl-6-(trifluoromethyl)-1H-benzo[d]imidazole] | – | – | -0.86 | 46.7 | –
Cn1c(-c2csc(-c3ccc(Br)cc3F)n2)nc2ccc(F)cc21 [VPC-18-56, 2-(4-Bromo-2-fluorophenyl)-4-(6-fluoro-1-methyl-1H-benzo[d]imidazol-2-yl)thiazole] | INACTIVE | INACTIVE | – | – | –
NC(=O)c1ccc2cc(-c3csc(-c4ccco4)n3)oc2c1 [VPC-18-83] | – | – | -40 | -10 | –
CCn1c(-c2csc(-c3ccccn3)n2)nc2ccccc21 [VPC-18-15] | insoluble | insoluble | – | – | –
Cl.Cn1c(-c2ccc(C3=CCNCC3)o2)nc2ccc(C(F)(F)F)cc21 [VPC-18-70, 1-methyl-2-(5-(1,2,3,6-tetrahydropyridin-4-yl)furan-2-yl)-6-(trifluoromethyl)-1H-benzo[d]imidazole hydrochloride] | – | – | 74 | 100 | cell death
